The test system of one data set is male NMRI mice. Briefly: Toxicity, Irwin's test. In kind it is in vivo. On the procedure: Progressive doses of the compound to be tested are administered intraperitoneally to groups of three mice until the lethal dose is reached (dose which causes the death of two animals out of three within 48 hours).
Data set [1] deals with learning of the avoidance reflex. Briefly: Multiple-trial passive avoidance: learning. In kind it is in vivo, rats (male Sprague-Dawley). The note with it: i.p. at the dose (mg/kg) of the line in Table V, 30 min before test; criterion 180 seconds on the mat. Here is the method:
To evaluate whether a compound can promote learning, the following test is carried out.
This experiment is repeated until the animal remains on the rubber mat for at least 180 seconds in order to avoid the electric shock. The learning is expressed by the average number of trials needed to reach a period of 180 seconds remaining on the mat.
A period of remaining on the rubber mat of 180 seconds is regarded as being the maximum performance which can be realized by the animal to avoid the electric shock. Rats which remain on the mat for this period have acquired the avoidance reflex and are replaced in their original cage without receiving the electric shock.
group 1 receives an intraperitoneal injection of physiological salt solution:
group 2 receives an intraperitoneal injection of the compound to be tested:
Columns 3 and 4 show the results obtained in the test used to evaluate the learning. The figures indicate the average number of trials needed for a control animal (group 1) or an animal treated (group 2) with the compound to learn to remain on the rubber mat for 180 seconds in order to avoid the electric shock. The results were analyzed by the Student test.

The test system of data set [2] is amnesia induced by scopolamine. Briefly: Multiple-trial passive avoidance: mnemic retention (amnesia induced by scopolamine). The note with it: compound i.p. at the dose of the line + scopolamine 0.5 mg i.p. Here is the method:
To this end, the method of multiple-trial passive avoidance has been used. This method is well-known for evaluating the effects which a product exerts on the memory and learning (A. FINE et al., Proc. Natl. Acad. Sci. U.S.A., 82, (1985), 5227-5230).
The test is carried out on male Sprague-Dawley rats (160-200 g). which are kept in standard cages throughout the experiment.
The apparatus used is a transparent square cage with 35 cm sides and 25 cm high, fitted with a grid floor which can be electrified. An insulating rubber mat (10×17 cm) is placed on the floor in one of the corners of the cage.
Each animal is subjected to four tests at times 0, 4, 24 and 28 hours. In the first test (time 0), the animal is placed on the rubber mat and the time which it takes to decide to leave this position to explore the cage is recorded. After 20 seconds of exploration, the rat receives an electric shock (3 seconds duration) in the paws, causing a flight reaction. The rat is immediately removed from the apparatus and replaced in its original cage. In the course of the three subsequent tests (times: 4, 24 and 28 hours), the animal is replaced on the rubber mat and the time taken to leave this position is recorded. When the four paws of the animal rest on the grid, it receives an electric shock and is immediately removed from the apparatus.
At the start of the experiment, the rats are divided into 4 homogeneous groups of 15 animals. Thirty minutes before each test, each group of animals is subjected to a predetermined treatment:
Groups 1 and 2 are used in the first experiment and groups 3 and 4 are used in the second experiment.
The differences observed are analyzed statistically by the Mann-Whitney method.

Setting [3] is: mice, i.p., death of two animals out of three within 48 hours.

Structures are written as SMILES. Bounds are passed on as bounds.

With `CCCc1nc(NC[C@@H](C)O)nc(N2CCOCC2)n1` [Compound 17, (R)-3-[(4-morpholino-6-propyl-1,3.5-triazin-2-yl)amino]-2-propanol], in the data set on male NMRI mice (setting [3]), the Lethal dose worked out at 844 mg/kg. Regarding `CCCc1nc(NCCO)nc(N2CCOCC2)n1`, in data set [1], the “Learning, average number of trials (group 2)” value (“Learning, average number” for short) was 1.53. In addition, in data set [2], the “Period of remaining on the mat, group 4, 4 hours” value came out at 44.8 s; the “Period of remaining on the mat, group 4, 24 hours” value (“Period of remaining … 24 hours” below) came out at 61.3 s; the “Period of remaining on the mat, group 4, 28 hours” value (“Period of remaining … 28 hours” below) came to 102.7 s. In the data set with male NMRI mice (setting [3]), this compound came in with a Lethal dose of 802 mg/kg. Compound `CCCc1nc(NC(=O)c2ccc(C)cc2)nc(N2CCOCC2)n1` [Compound 33] gave a Lethal dose in the data set on male NMRI mice (setting [3]) of 1132 mg/kg. The same measure, in the same setting: under `CCCc1nc(NC(=O)Cc2ccccc2)nc(N2CCOCC2)n1` [Compound 23] stands more than 1024 mg/kg.

With `CCCc1nc(NC(=O)N(C)C)nc(N2CCOCC2)n1` [Compound 41, N,N-Dimethyl-N'-(4-morpholino-6-propyl-1,3,5-triazin-2-yl)-urea], the “Learning, average number” value in data set [1] came out at 1.33. In data set [2], the “Period of remaining on the mat, group 4, 4 hours” value turned out to be 15.8 s; the “Period of remaining … 24 hours” value is 27.3 s; the “Period of remaining … 28 hours” value was 66.3 s. This compound gave a Lethal dose in the data set on male NMRI mice (setting [3]) of 294 mg/kg. Take `CCCc1nc(NCCOC(=O)C(C)C)nc(N2CCOCC2)n1` [Compound 38]: the Lethal dose with male NMRI mice (setting [3]) is on record as more than 1012 mg/kg. Turning to `CCCc1nc(NC(C)(C)CO)nc(N2CCOCC2)n1` [Compound 8], the Lethal dose with male NMRI mice (setting [3]) was determined as 886 mg/kg. As for `CCCc1nc(NC(=O)c2ccc(C)c(C)c2)nc(N2CCOCC2)n1` [Compound 36], the Lethal dose with male NMRI mice (setting [3]) stood at 1174 mg/kg. As for `CCCc1nc(N2CCOCC2)nc(N(CCOC(C)=O)C(C)=O)n1`, in the data set on male NMRI mice (setting [3]), the Lethal dose stood at 351 mg/kg. For the compound `CCCc1nc(NC(C)=O)nc(N2CCOCC2)n1` [listing 1 of 2 here], the “Learning, average number” value in data set [1] is given as 1.53. Also, in data set [2], the “Period of remaining on the mat, group 4, 4 hours” value was determined as 60.4 s; the “Period of remaining … 24 hours” value is 74.6 s; the “Period of remaining … 28 hours” value was 102.4 s. Besides, the Lethal dose in the data set on male NMRI mice (setting [3]) is 996 mg/kg. Turning to `CCCc1nc(NC(=O)c2ccccc2)nc(N2CCOCC2)n1.Cl`, the “Learning, average number” value in data set [1] is given as 1.0. In data set [2], the “Period of remaining on the mat, group 4, 4 hours” value was found to be 70.9 s; the “Period of remaining … 24 hours” value worked out at 82.8 s; the “Period of remaining … 28 hours” value is 137.6 s. Moreover, in the data set on male NMRI mice (mouse, in vivo, ip), the Lethal dose was 1091 mg/kg. `CCCc1nc(NC(C)(CO)CO)nc(N2CCOCC2)n1` [Compound 13] returned a Lethal dose with male NMRI mice (setting [3]) of 934 mg/kg.

Turning to `CCCc1nc(NCCOC)nc(N2CCOCC2)n1` [Compound 10, 2-[(2-methoxyethyl)amino]-4-morpholino-6-propyl-1,3,5-triazine], the “Learning, average number” value in data set [1] worked out at 2.07. Moreover, in data set [2], the “Period of remaining on the mat, group 4, 4 hours” value was determined as 15.7 s; the “Period of remaining … 24 hours” value is 31.1 s; the “Period of remaining … 28 hours” value was found to be 34.1 s. In addition, the Lethal dose in the data set on male NMRI mice (setting [3]) was 844 mg/kg. Regarding `CCCc1nc(NN(C)C)nc(N2CCOCC2)n1`, in data set [1], the “Learning, average number” value is 1.53. For the same compound, in data set [2], the “Period of remaining on the mat, group 4, 4 hours” value turned out to be 55.3 s; the “Period of remaining … 24 hours” value was determined as 57.7 s; the “Period of remaining … 28 hours” value was 87.9 s. The compound also showed a Lethal dose in the data set on male NMRI mice (setting [3]) of 799 mg/kg. In the data set on male NMRI mice (setting [3]), `CCCc1nc(N2CCOCC2)nc(N(C)C(=O)c2ccc(C)cc2)n1` [Compound 34] yielded a Lethal dose of 1174 mg/kg. Turning to `CCCc1nc(N2CCOCC2)nc(N(C)C(=O)c2ccc(OC)cc2)n1` [Compound 32], the Lethal dose with male NMRI mice (setting [3]) was found to be 1222 mg/kg. As for `CCCc1nc(N(C)CCO)nc(N2CCOCC2)n1`, the “Learning, average number” value in data set [1] turned out to be 2.0. Also, in data set [2], the “Period of remaining on the mat, group 4, 4 hours” value came to 67.9 s; the “Period of remaining … 24 hours” value is 62.7 s; the “Period of remaining … 28 hours” value was determined as 160.3 s. In addition, the Lethal dose in the data set with male NMRI mice (setting [3]) stood at 844 mg/kg. `CCCc1nc(NC(C)=O)nc(N2CCOCC2)n1` [listing 2 of 2 here] gave a Lethal dose in the data set with male NMRI mice (setting [3]) of 905 mg/kg.

The compound `CCCc1nc(NC(CO)C(O)c2ccccc2)nc(N2CCOCC2)n1` (stereo not shown) [Compound 15] showed a Lethal dose with male NMRI mice (setting [3]) of 1121 mg/kg. Take `CCCc1nc(N2CCOCC2)nc(N(C)C(C)=O)n1`: the Lethal dose in the data set with male NMRI mice (setting [3]) was determined as 947 mg/kg. In the data set on male NMRI mice (setting [3]), `CCCc1nc(NC(=O)C(C)C)nc(N2CCOCC2)n1` [Compound 24] had a Lethal dose of 880 mg/kg.

Take `CCCc1nc(N2CCOCC2)nc(N(C)C(=O)c2ccc(OC)c(OC)c2)n1` [Compound 35]: the Lethal dose in the data set with male NMRI mice (setting [3]) turned out to be 401 mg/kg. For the compound `CCCc1nc(NC(CO)(CO)CO)nc(N2CCOCC2)n1` [Compound 12], the Lethal dose in the data set on male NMRI mice (setting [3]) was 982 mg/kg. In the data set on male NMRI mice (setting [3]), `CCCc1nc(NCC(O)CC)nc(N2CCOCC2)n1` (stereo not shown) [Compound 6] gave a Lethal dose of 886 mg/kg.

Compound `CCCc1nc(NO)nc(N2CCOCC2)n1` [Compound 2, 2-(hydroxyamino)-4-morpholino-6-propyl-1,3,5-triazine] showed a Lethal dose in the data set on male NMRI mice (setting [3]) of 718 mg/kg. In the data set on male NMRI mice (setting [3]), `CCCc1nc(NC(=O)c2ccc(OC)cc2)nc(N2CCOCC2)n1` [Compound 31] gave a Lethal dose of 511 mg/kg. As for `CCCc1nc(NCC2(O)CCCCC2)nc(N2CCOCC2)n1` [Compound 18], in the data set on male NMRI mice (setting [3]), the Lethal dose is 1007 mg/kg.

In the case of `CCCc1nc(NCCOC(C)=O)nc(N2CCOCC2)n1`, the “Learning, average number” value in data set [1] is 1.3. In addition, in data set [2], the “Period of remaining … 24 hours” value is 44.4 s and the “Period of remaining … 28 hours” value came to 49.9 s. The same compound displayed a Lethal dose with male NMRI mice (setting [3]) of 928 mg/kg. Consider `CCCc1nc(NC(=O)Oc2ccccc2)nc(N2CCOCC2)n1` [Compound 28, phenyl (4-morpholino-6-propyl-1,3,5-triazin-2-yl)carbamate], for which the Lethal dose in the data set on male NMRI mice (setting [3]) is on record as more than 1030 mg/kg. In the case of `CCCc1nc(NCCOC(=O)Cc2ccccc2)nc(N2CCOCC2)n1` [Compound 40], in the data set with male NMRI mice (setting [3]), the Lethal dose came out at 1157 mg/kg. As to `CCCc1nc(NC[C@H](C)O)nc(N2CCOCC2)n1` [Compound 16, (S)-3-[(4-morpholino-6-propyl-1,3,5-triazin-2-yl)amino]-2-propanol], the Lethal dose in the data set with male NMRI mice (setting [3]) is reported as 844 mg/kg. In turn, `CCCc1nc(NC(=O)c2ccc(Cl)cc2)nc(N2CCOCC2)n1` [Compound 29] registered a Lethal dose with male NMRI mice (setting [3]) of 398 mg/kg. In the case of `CCCc1nc(N2CCOCC2)nc(N2CCCC2CO)n1` (stereo not shown) [Compound 19], the Lethal dose with male NMRI mice (setting [3]) is recorded as 1031 mg/kg. Same read-out and setting: the figure for `CCCc1nc(NCCOC(N)=O)nc(N2CCOCC2)n1` [Compound 42, 2-[[2-[(Aminocarbonyl)oxy]ethyl]amino]-4-morpholino-6-propyl-1,3,5-triazine] is more than 931 mg/kg; for `CCCc1nc(N2CCOCC2)nc(N(CCO)Cc2ccccc2)n1` [Compound 14] it is more than 1073 mg/kg; for `CCCc1nc(NCC(O)CO)nc(N2CCOCC2)n1` (stereo not shown) [Compound 11] it is 892 mg/kg.

In the case of `CCCc1nc(N2CCOCC2)nc(N(C)C(=O)C(C)C)n1`, the Lethal dose with male NMRI mice (setting [3]) turned out to be 922 mg/kg.

In the data set on male NMRI mice (setting [3]), `CCCc1nc(N2CCOCC2)nc(N(C)C(=O)c2ccc(Cl)cc2)n1` [Compound 30] displayed a Lethal dose of 1125 mg/kg.

Turning to `CCCc1nc(NCCCO)nc(N2CCOCC2)n1` [Compound 3], the Lethal dose in the data set on male NMRI mice (setting [3]) is given as 844 mg/kg. On the same count and under the same terms, under `CCCc1nc(NCCCCO)nc(N2CCOCC2)n1` [Compound 4] stands 886 mg/kg. For the compound `CCCc1nc(NCCOC(=O)c2ccccc2)nc(N2CCOCC2)n1` [Compound 39], in the data set on male NMRI mice (setting [3]), the Lethal dose was more than 1114 mg/kg. Compound `CCCc1nc(NCC(C)O)nc(N2CCOCC2)n1` (stereo not shown) [Compound 5] displayed a Lethal dose in the data set on male NMRI mice (setting [3]) of 563 mg/kg.

Values taken from patent US4956363A, “Treatment of cognitive and behavioral disorders associated with aging and with dementia syndromes” (U C B S.A., priority 1988, dated 1990).
